The structures appear in SMILES notation.

One experiment addresses T1, TIE2 (Homo sapiens, UniProt Q02763).
T1 construct: purchased DiscoverX (KINOMEscan)
Briefly: KINOMEscan competitive binding. Particulars: n=1, read-out: Percent inhibition, TIE2.

The target of experiment [1] is T2, panel of 203 kinases (Homo sapiens, UniProt P51813).
T2 construct: purchased DiscoverX (KINOMEscan)
T2 sequence (P51813 1-675): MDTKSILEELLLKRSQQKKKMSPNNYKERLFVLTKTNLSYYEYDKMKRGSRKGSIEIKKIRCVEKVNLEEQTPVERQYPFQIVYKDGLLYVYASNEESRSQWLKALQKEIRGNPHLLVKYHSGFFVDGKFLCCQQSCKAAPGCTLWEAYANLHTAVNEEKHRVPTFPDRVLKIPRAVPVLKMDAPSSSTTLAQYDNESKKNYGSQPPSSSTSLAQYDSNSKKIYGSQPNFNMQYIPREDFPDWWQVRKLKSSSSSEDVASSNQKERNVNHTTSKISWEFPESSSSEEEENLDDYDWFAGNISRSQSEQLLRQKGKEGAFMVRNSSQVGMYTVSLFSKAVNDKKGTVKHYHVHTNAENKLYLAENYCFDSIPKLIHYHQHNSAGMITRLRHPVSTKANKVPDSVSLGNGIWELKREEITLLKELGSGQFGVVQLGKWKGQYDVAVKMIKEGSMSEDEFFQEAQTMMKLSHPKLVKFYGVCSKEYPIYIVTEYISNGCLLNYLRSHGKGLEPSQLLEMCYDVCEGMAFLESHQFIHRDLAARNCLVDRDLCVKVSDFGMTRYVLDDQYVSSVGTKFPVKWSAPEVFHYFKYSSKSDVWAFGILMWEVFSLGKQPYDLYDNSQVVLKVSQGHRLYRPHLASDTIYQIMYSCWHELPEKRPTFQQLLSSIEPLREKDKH
As to the kind of experiment: KINOMEscan competitive binding, whole panel. Particulars: 10 µM, n=1; kinase BMX; read-out: Percent inhibition BMX. The gist of the method: (§1)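 Percentage inhibition reflects loss of kinase binding to solid-phase ATP-site probe ligands in the presence of compound. Kinases carry a T7 bacteriophage fusion.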

The target in experiment [2] is T3, panel of 203 kinases (Homo sapiens, UniProt O94804).
T3 construct: purchased DiscoverX (KINOMEscan)
As to the kind of experiment: KINOMEscan competitive binding, whole panel. Particulars: 10 µM, n=1; kinase LOK; read-out: Percent inhibition LOK. The gist of the method:
as §1

The target in experiment [3] is T4, panel of 203 kinases (Homo sapiens, UniProt P28482).
T4 construct: purchased DiscoverX (KINOMEscan)
Briefly: KINOMEscan competitive binding, whole panel. Particulars: 10 µM, n=1; kinase ERK2; read-out: Percent inhibition ERK2. The gist of the method:
as §1

For experiment [4], the target named is T5, panel of 203 kinases (Homo sapiens, UniProt P45984).
T5 construct: purchased DiscoverX (KINOMEscan)
As to the kind of experiment: KINOMEscan competitive binding, whole panel. Particulars: 10 µM, n=1; kinase JNK2; read-out: Percent inhibition JNK2. The gist of the method: as §1

In experiment [5] the target is T6, panel of 203 kinases (Homo sapiens, UniProt Q9Y6E0).
T6 construct: purchased DiscoverX (KINOMEscan)
As to the kind of experiment: KINOMEscan competitive binding, whole panel. Particulars: 10 µM, n=1; kinase MST3; read-out: Percent inhibition MST3. The gist of the method:
as §1

The target of experiment [6] is T7, panel of 203 kinases (Homo sapiens, UniProt Q9P0L2).
T7 construct: purchased DiscoverX (KINOMEscan)
Briefly: KINOMEscan competitive binding, whole panel. Particulars: 10 µM, n=1; kinase MARK1; read-out: Percent inhibition MARK1. The gist of the method:
as §1

For experiment [7], the target named is T8, panel of 203 kinases (Homo sapiens, UniProt P45983).
T8 construct: purchased DiscoverX (KINOMEscan)
Briefly: KINOMEscan competitive binding, whole panel. Conditions: 10 µM, n=1; kinase JNK1; read-out: Percent inhibition JNK1. The gist of the method:
as §1

Experiment [8] deals with T9, panel of 203 kinases (Homo sapiens, UniProt P21802).
T9 construct: purchased DiscoverX (KINOMEscan)
Briefly: KINOMEscan competitive binding, whole panel. Particulars: 10 µM, n=1; kinase FGFR2; read-out: Percent inhibition FGFR2. The gist of the method:
as §1

Experiment [9] concerns the target T10, panel of 203 kinases (Homo sapiens, UniProt P54646).
T10 construct: purchased DiscoverX (KINOMEscan)
Briefly: KINOMEscan competitive binding, whole panel. Particulars: 10 µM, n=1; kinase AMPK-alpha2; read-out: Percent inhibition AMPK-alpha2. The gist of the method: as §1

The target in experiment [10] is T11, panel of 203 kinases (Homo sapiens, UniProt P42684).
T11 construct: purchased DiscoverX (KINOMEscan)
As to the kind of experiment: KINOMEscan competitive binding, whole panel. Conditions: 10 µM, n=1; kinase ABL2; read-out: Percent inhibition ABL2. The gist of the method:
as §1

For experiment [11], the target named is T12, panel of 203 kinases (Homo sapiens, UniProt P42685).
T12 construct: purchased DiscoverX (KINOMEscan)
Briefly: KINOMEscan competitive binding, whole panel. Conditions: 10 µM, n=1; kinase FRK; read-out: Percent inhibition FRK. The gist of the method:
as §1

The target of the next experiment is T13, YSK1 (Homo sapiens, UniProt O00506).
T13 construct: purchased DiscoverX (KINOMEscan)
Briefly: KINOMEscan competitive binding. Conditions: n=1, read-out: Percent inhibition, YSK1.

The target in another experiment is T14, TNIK (Homo sapiens, UniProt Q9UKE5).
T14 construct: purchased DiscoverX (KINOMEscan)
Briefly: KINOMEscan competitive binding. Particulars: n=1, read-out: Percent inhibition, TNIK.

The target of a further experiment is T15, RET (Homo sapiens, UniProt P07949).
T15 construct: purchased DiscoverX (KINOMEscan)
Briefly: KINOMEscan competitive binding. Conditions: n=1, read-out: Percent inhibition, RET.

The target in a further experiment is T16, PKAC-beta (Homo sapiens, UniProt P22694).
T16 construct: purchased DiscoverX (KINOMEscan)
As to the kind of experiment: KINOMEscan competitive binding. Conditions: n=1, read-out: Percent inhibition, PKAC-beta.

The next experiment deals with T17, TYK2(Kin.Dom.2) (Homo sapiens, UniProt P29597).
T17 construct: TYK2(Kin.Dom.2); purchased DiscoverX (KINOMEscan)
T17 sequence (P29597 889-1187 limits assumed): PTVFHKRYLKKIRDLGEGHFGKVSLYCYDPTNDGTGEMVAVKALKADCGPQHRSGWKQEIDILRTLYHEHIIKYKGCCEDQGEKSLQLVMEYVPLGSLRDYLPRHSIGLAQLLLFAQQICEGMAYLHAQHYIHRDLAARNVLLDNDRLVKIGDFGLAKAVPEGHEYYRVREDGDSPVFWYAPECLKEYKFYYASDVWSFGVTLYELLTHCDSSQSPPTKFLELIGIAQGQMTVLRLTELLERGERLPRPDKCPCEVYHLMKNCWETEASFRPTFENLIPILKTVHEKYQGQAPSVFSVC
Briefly: KINOMEscan competitive binding. Particulars: n=1, read-out: Percent inhibition, TYK2(Kin.Dom.2).

T12 sequence (P42685 whole entry): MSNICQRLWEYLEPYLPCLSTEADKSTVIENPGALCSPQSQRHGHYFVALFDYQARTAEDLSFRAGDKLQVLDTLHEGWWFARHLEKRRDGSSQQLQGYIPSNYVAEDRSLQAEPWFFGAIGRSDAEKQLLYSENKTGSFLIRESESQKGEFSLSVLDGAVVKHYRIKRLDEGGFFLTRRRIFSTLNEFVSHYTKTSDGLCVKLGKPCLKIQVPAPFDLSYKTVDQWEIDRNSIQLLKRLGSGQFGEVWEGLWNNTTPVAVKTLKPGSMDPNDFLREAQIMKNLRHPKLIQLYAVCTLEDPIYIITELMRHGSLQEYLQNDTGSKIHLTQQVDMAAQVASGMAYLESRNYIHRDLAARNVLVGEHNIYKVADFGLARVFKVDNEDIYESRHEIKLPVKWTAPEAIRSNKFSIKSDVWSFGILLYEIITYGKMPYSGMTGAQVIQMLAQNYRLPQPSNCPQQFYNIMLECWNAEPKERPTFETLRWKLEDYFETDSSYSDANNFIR
T1 sequence (Q02763 23-1124): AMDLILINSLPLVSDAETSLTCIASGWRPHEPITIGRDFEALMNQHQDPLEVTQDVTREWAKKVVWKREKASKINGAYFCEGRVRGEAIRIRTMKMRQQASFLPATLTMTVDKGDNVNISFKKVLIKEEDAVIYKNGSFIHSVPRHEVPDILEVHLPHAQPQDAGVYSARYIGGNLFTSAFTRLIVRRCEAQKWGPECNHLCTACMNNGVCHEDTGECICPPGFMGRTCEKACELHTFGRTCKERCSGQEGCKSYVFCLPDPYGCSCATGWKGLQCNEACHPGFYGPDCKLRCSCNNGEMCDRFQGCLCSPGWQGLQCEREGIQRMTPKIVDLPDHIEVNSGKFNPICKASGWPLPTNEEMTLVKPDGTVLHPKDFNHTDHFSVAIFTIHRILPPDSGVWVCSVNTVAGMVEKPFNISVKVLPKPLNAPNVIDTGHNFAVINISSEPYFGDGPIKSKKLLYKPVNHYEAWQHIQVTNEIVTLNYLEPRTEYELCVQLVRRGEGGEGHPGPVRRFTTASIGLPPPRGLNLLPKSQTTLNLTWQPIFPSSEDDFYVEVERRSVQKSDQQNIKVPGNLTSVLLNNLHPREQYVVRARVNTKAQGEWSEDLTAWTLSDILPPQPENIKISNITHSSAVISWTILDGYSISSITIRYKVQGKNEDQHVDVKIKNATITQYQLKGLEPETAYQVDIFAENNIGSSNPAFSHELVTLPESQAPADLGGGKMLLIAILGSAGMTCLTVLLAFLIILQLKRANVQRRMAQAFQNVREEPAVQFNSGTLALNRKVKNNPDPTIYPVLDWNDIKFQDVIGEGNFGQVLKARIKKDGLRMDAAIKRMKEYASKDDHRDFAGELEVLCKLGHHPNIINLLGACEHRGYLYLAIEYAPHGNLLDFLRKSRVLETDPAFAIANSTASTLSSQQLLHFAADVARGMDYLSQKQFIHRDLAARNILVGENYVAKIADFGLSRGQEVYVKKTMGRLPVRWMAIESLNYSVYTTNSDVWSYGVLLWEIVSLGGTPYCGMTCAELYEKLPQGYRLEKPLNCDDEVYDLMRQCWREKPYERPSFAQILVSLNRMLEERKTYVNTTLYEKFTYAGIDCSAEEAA
T5 sequence (P45984 whole entry): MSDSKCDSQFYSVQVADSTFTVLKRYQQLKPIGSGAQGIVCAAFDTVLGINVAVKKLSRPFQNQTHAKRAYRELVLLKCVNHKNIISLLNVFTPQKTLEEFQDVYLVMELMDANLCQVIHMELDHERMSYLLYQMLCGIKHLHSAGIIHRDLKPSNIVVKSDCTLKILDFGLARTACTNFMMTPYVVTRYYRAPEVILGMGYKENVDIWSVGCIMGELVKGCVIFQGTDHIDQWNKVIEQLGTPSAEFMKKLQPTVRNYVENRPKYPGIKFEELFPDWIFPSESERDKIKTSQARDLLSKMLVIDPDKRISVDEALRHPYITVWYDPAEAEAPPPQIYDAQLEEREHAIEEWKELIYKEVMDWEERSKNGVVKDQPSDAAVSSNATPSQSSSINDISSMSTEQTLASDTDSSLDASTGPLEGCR
T15 sequence (P07949 29-1114): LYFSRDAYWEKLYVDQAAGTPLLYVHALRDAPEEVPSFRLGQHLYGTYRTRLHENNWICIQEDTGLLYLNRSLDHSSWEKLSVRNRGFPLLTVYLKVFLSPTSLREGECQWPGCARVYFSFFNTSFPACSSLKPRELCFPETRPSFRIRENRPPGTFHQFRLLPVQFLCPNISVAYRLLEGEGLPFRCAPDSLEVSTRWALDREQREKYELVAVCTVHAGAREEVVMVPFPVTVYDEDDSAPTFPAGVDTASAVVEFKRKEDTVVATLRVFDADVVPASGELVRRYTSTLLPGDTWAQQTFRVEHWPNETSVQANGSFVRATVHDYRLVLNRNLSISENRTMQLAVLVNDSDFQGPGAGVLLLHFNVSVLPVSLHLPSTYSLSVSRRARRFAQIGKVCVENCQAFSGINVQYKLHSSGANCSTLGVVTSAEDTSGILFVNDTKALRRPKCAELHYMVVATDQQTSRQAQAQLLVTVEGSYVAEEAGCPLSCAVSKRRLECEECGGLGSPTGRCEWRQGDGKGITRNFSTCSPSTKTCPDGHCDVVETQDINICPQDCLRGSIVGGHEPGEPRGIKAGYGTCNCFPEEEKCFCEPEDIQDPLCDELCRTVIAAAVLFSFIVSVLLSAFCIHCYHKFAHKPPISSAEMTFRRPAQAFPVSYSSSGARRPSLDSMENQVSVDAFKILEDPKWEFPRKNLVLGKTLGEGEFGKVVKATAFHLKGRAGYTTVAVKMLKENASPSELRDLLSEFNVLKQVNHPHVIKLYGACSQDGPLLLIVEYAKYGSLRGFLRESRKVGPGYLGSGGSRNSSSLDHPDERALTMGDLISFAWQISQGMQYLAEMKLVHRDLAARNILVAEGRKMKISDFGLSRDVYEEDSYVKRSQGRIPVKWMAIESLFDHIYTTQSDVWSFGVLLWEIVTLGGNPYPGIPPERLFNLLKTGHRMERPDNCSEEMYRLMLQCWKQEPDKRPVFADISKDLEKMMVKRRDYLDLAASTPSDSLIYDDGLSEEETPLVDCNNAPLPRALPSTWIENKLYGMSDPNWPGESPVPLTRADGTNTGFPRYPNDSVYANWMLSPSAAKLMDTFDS
T8 sequence (P45983 whole entry): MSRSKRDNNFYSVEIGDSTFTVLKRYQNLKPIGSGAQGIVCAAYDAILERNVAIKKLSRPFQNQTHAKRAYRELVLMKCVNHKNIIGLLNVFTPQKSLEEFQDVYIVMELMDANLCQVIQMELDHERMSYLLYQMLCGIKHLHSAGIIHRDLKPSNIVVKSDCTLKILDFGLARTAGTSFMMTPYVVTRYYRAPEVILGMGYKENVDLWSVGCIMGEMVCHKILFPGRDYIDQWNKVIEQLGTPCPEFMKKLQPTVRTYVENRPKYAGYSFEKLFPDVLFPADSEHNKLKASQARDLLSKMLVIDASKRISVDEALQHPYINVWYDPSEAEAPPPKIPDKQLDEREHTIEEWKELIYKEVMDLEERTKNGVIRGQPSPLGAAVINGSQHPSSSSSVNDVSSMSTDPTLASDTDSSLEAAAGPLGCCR
T4 sequence (P28482 whole entry): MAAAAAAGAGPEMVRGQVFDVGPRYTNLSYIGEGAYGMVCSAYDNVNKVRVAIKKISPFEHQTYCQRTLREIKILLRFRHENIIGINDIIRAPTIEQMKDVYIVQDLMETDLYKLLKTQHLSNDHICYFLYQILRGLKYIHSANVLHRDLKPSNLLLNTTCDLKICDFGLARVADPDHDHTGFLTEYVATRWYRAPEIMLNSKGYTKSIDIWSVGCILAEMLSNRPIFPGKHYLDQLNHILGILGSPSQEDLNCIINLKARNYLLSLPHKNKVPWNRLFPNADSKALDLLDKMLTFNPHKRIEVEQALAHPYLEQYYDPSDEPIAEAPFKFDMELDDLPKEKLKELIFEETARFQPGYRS
T6 sequence (Q9Y6E0 whole entry): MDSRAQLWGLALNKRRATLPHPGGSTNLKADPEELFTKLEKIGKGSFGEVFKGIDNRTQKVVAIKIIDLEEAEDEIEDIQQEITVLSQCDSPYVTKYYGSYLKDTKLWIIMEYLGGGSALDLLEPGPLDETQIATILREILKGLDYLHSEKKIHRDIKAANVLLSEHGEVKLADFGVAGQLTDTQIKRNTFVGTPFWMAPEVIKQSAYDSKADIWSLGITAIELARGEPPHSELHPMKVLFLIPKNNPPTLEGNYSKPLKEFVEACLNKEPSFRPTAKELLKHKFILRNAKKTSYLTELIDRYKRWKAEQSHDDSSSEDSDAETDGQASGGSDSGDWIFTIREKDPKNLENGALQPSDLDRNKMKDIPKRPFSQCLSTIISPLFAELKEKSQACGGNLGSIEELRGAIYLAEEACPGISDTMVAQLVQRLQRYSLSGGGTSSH
T13 sequence (O00506 whole entry): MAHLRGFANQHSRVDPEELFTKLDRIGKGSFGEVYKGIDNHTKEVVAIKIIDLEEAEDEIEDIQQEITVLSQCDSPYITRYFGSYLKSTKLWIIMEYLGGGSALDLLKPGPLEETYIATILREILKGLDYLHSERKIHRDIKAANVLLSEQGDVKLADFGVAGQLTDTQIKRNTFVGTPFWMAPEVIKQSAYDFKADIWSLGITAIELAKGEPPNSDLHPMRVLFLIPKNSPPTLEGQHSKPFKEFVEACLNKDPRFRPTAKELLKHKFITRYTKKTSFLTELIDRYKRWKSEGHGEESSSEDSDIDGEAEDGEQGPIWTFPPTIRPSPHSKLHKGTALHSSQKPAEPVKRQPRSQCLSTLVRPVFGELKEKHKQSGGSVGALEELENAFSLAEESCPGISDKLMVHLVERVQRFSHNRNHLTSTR

Broadly, the inhibition is how much of the control response was suppressed. Consider `COc1ccc(Nc2nccc(-c3cnn4ncccc34)n2)cc1` [Compound 2], for which the inhibition at 10 µM at TIE2 worked out at 0%; on panel of 203 kinases [1], 0%; at panel of 203 kinases [2] it was 0%; at panel of 203 kinases [3], 99.2%; at panel of 203 kinases [4], 99.1%; on panel of 203 kinases [5] it was 72%. The inhibition at 10 µM on panel of 203 kinases [6] stood at 0%; on panel of 203 kinases [7] it was 98.5%; on panel of 203 kinases [8] it was 0%; on panel of 203 kinases [9], 0%; at panel of 203 kinases [10] it was 92.5%; at panel of 203 kinases [11], 0%. For the same molecule, the inhibition at 10 µM on YSK1 was 0%; on TNIK it was 93.4%; on RET, 0%; on PKAC-beta, 0%; at TYK2(Kin.Dom.2) it was 0%.

As to `Nc1ncc2c(-c3ccncc3)c[nH]c2n1` [Compound 11], the inhibition at 10 µM came to 0% on TIE2; 0% on panel of 203 kinases [1]; 0% on panel of 203 kinases [2]; 0% on panel of 203 kinases [3]; 0% on panel of 203 kinases [4]; 68.2% on panel of 203 kinases [5]. The inhibition at 10 µM stood at 0% at panel of 203 kinases [6]; 77.1% at panel of 203 kinases [7]; 0% on panel of 203 kinases [8]; 0% on panel of 203 kinases [9]; 0% at panel of 203 kinases [10]; 0% on panel of 203 kinases [11]. Also, the inhibition at 10 µM on YSK1 came out at 0%; on TNIK it was 93.7%; on RET it was 0%; on PKAC-beta it was 0%; on TYK2(Kin.Dom.2), 0%.

For the molecule `COc1cc(Nc2nccc(-c3sc(N)nc3-c3cccc(NC(=O)c4c(F)cccc4F)c3)n2)cc(OC)c1OC` [Compound 7], the inhibition at 10 µM on TIE2 came to 100%; on panel of 203 kinases [1], 100%; at panel of 203 kinases [2], 100%; at panel of 203 kinases [3], 100%; at panel of 203 kinases [4], 99%; at panel of 203 kinases [5], 93.8%. Also, the inhibition at 10 µM at panel of 203 kinases [6] turned out to be 79%; at panel of 203 kinases [7] it was 100%; on panel of 203 kinases [8] it was 100%; at panel of 203 kinases [9] it was 100%; on panel of 203 kinases [10], 100%; at panel of 203 kinases [11], 100%. For the same molecule, the inhibition at 10 µM at YSK1 stood at 96.3%; on TNIK it was 99.9%; at RET, 100%; at PKAC-beta it was 0%; on TYK2(Kin.Dom.2), 97.2%.

Values taken from publication PMC9927415, “Tyrosine Kinase Inhibitors Display Potent Activity against Cryptosporidium parvum” (Microbiology Spectrum, 2022).
